Results as given in patent US10980775B2, “Composition for prevention or treatment of cutaneous disorder” (XANTIAL, priority 2015, dated 2021).
“And” between values parts separate entries of the source, which are not always exact repeats. Equal entries are not always repeated.

Key:
[1] = tested on: collagen I expression in NHDF; test: Collagen I expression in NHDF stimulated with vitamin C+TGF-beta, in situ immunolabeling; assay type: cell-based, human; details: 50 μg/ml, 72 hours
Experimental: Analysis of collagen I expression in NHDF stimulated with vitamin C+TGF-beta by in situ immunolabeling. Activated HMVEC release TGF-beta which stimulates extracellular matrix synthesis by NHDF. TGF-beta stimulates the synthesis of collagen and vitamin C its release, creating experimental conditions close to TSC pathology conditions.
Normal Human Dermal Fibroblasts (NHDF) • Cell type: NHDF, used at the 8th passage • Culture conditions: 37° C., 5% CO2 • Culture medium: DMEM supplemented with L-glutamine 2 mM, Penicillin 50 U/ml—Streptomycin 50 μg/ml Fetal calf serum (FCS) 10% • Assay medium: DMEM supplemented with L-glutamine 2 mM, Penicillin 50 U/ml, Streptomycin 50 μg/ml FCS 1%. Culture and Treatment
The fibroblasts were seeded in 96-well plates and cultured in culture medium for 24 hours. The medium was then replaced with assay medium containing or not (control) the test compounds or associations in presence or not (non-stimulated control) of the association vitamin C+TGF-beta (20 μg/ml+10 ng/ml). The cells were incubated for 72 hours. All experimental conditions were performed in n=3.
After incubation, culture media were discarded and the cells were rinsed, fixed and permeabilized.
The acquisition of the images (5 photos per well) was performed using INCell Analyzer™ 1000 (GE Healthcare). Representative images for each experimental condition were included in the report.
The labeling was quantified by the measurement of the fluorescence intensity normalized to the total number of cells (Integration of numerical data with the Developer Toolbox 1.5, GE Healthcare software).

HMVEC/NHDF co-culture = test: Pseudotube formation (branching points) in VEGF-stimulated HMVEC/NHDF co-culture, in situ immunolabeling; assay type: cell-based, human; details: VEGF 100 ng/ml, 10 days; for Number of branching points, Mean: n=3; for Number of branching points: single replicate
Experimental: Analysis of pseudotube formation in a HMVEC/NHDF co-culture by in situ immunolabeling.
Human Microvascular Endothelial Cells (HMVEC) • Cell type: HMVEC, used at the 7th passage
HMVEC/NHDF Co-Culture • Cell type: HMVEC+NHDF (50:50 ratio) • Culture conditions: 37° C., 5% CO2 • Co-culture medium: Endothelial Cell Basal Medium 2 (EBM-2) supplemented with Fetal calf serum (FCS) 5%, rhEGF, rhFGF, R3 IGF-1, hydrocortisone, vitamin C and gentamycin +
DMEM supplemented with L-glutamine 2 mM, Penicillin 50 U/ml, Streptomycin 50 μg/ml FCS 10%.
The HMVEC and NHDF were seeded in 96-well plates and co-cultured in co-culture medium for 24 hours. The medium was then removed and replaced by co-culture medium containing or not (control) the test compounds, associations or the reference, suramine at 5 μM, in presence or not (non-stimulated control) of the inducer, VEGF at 100 ng/ml. The cells were incubated for 10 days with treatment renewal after 72 hours of incubation. All experimental conditions were performed in n=3.
After incubation, culture media were discarded and the cells were rinsed, fixed and permeabilized. The cells were then labeled using a primary antibody anti-Von Willebrand Factor.
The formation of pseudotubes was observed using a NIKON Diaphot 300 microscope (lens×4). The images were captured (1 photo per well) using a NIKON DS-Fi1 camera and NIS-Elements 3.10 software. Then the number of branching points within the pseudotube network was counted on each image.

For COc1cc2c(cc1O)CCC(C)(C)O2 [Dimethylmethoxy chromanol], the “Collagen I, Mean (basic data)” value ([1]; NHDF + vitamin C+TGF-beta (20 μg/ml+10 ng/ml), n=3) was 274529, the “Collagen I branching points (basic data)” value ([1]; NHDF + vitamin C+TGF-beta (20 μg/ml+10 ng/ml), single replicate) was 250891 and 283414 and 289284 and the “% Stimulated control (collagen I)” value ([1]; NHDF + vitamin C+TGF-beta) was 73%. The “% inhibition (collagen I expression)” value ([1]; NHDF + vitamin C+TGF-beta) was 71%, the “% stimulated control (branching points)” value (HMVEC/NHDF co-culture; 6 μg/ml) was 79% and the “Number of branching points, Mean” value (HMVEC/NHDF co-culture; 6 μg/ml) was 98. The “Number of branching points” value (HMVEC/NHDF co-culture; 6 μg/ml) was 83 and 104 and 109 and the inhibition at 6 µg/mL (HMVEC/NHDF co-culture; Homo sapiens, 240 h, 6 μg/ml) was 21%.

Oc1ccc(/C=C/c2cc(O)cc(O)c2)cc1 [Resveratrol, 3,5,4′-trihydroxy-trans-stilbene] was tested, and the “% stimulated control (branching points)” value (HMVEC/NHDF co-culture; 2 μg/ml) was 113%, the “Number of branching points, Mean” value (HMVEC/NHDF co-culture; 2 μg/ml) was 141 and the “Number of branching points” value (HMVEC/NHDF co-culture; 2 μg/ml) was 139 and 157 and 126. For the same compound, the inhibition at 2 µg/mL (HMVEC/NHDF co-culture; Homo sapiens, 240 h, 2 μg/ml) was -13%.

With Cc1ccc(C(=O)Nc2ccc(S(=O)(=O)O)c3cc(S(=O)(=O)O)cc(S(=O)(=O)O)c23)cc1NC(=O)c1cccc(NC(=O)Nc2cccc(C(=O)Nc3cc(C(=O)Nc4ccc(S(=O)(=O)O)c5cc(S(=O)(=O)O)cc(S(=O)(=O)O)c45)ccc3C)c2)c1 [Suramine, reference compound] the “% stimulated control (branching points)” value (HMVEC/NHDF co-culture; 5 μM) was 63%, the “Number of branching points, Mean” value (HMVEC/NHDF co-culture; 5 μM) was 78 and the “Number of branching points” value (HMVEC/NHDF co-culture; 5 μM) was 72 and 85 and 79. It also gave an inhibition at 5 µM (HMVEC/NHDF co-culture; Homo sapiens, 240 h, 5 μM) of 37%.
